Results: patent publication US9462810B2, “Method for inactivating viruses with slightly acidic arginine” (AJINOMOTO CO., INC., priority 2007, dated 2016)
Like-named read-outs stand apart in the source and are kept apart here.

Columns and labels:
[1] = test system: influenza virus A/Aichi (H3N2); type: cell-based; conditions: 0.15M, two minutes
[2] = test system: Influenza A viruses/Aichi; type: cell-based, Influenza A virus
[3] = test system: herpes simplex viruses type 1, strain F (HSV-1); assay: HSV-1 inactivation by buffer solutions on ice for one hour, residual titer by plaque assay on Vero cells; type: cell-based
Sendai viruses = assay: Sendai virus inactivation by buffer solutions on ice for one hour, residual titer by plaque assay on Vero cells; type: cell-based; conditions: 0.7M, pH 4.0, on ice one hour
BVDV = conditions: 16 mM, 30° C., 10 hours, pH 4.5; cited from earlier work
[4] = Concentration 0.07 M, pH 4.0 (Example 4)
[5] = Concentration 0.14 M, pH 4.0 (Example 4)
[6] = Concentration 0.21 M, pH 4.0 (Example 4)
[7] = Concentration 0.28 M, pH 4.0 (Example 4)

SMILES | Virus Inactivating Efficiency (LRV) ([1]; pH 4.0, 21.6° C.) | Virus Inactivating Efficiency (LRV) ([1]; pH 4.2, 21.6° C.) | Virus Inactivating Efficiency (LRV) ([3]; 0.35M, pH 4.0 (Example 3)) | Virus Inactivating Efficiency (LRV) [3, 4] | Virus Inactivating Efficiency (LRV) [3, 5] | Virus Inactivating Efficiency (LRV) [3, 6] | Virus Inactivating Efficiency (LRV) [3, 7] | also measured
O=C1CC[C@@H](C(=O)O)N1 [PCA, pyrrolidone carboxylic acid] | 4.05 | 2.95 |  |  |  |  |  | 
CCCC(=O)N[C@@H](CCCNC(=N)N)C(=O)O [Nα-butyroyl-L-arginine] | 4.05 |  | >5.5 | 0.7 | 2.2 | 4.3 | 6.0 | Virus Inactivating Efficiency (LRV) ([2]; 0.7M, pH 4.0, on ice one hour): 3.7; Virus Inactivating Efficiency (LRV) (Sendai viruses): >3.7
CCCCCCCC(=O)O [caprylic acid] |  |  |  |  |  |  |  | titer of BVDV decreased to (BVDV): 1/10000
O=C([O-])CC(O)(CC(=O)[O-])C(=O)[O-].[Na+].[Na+].[Na+] [sodium citrate, reference compound] | 2.66 | 2.95 |  |  |  |  |  | Virus Inactivating Efficiency (LRV) ([2]; 0.1M, pH 3.5, on ice one hour): 2.1; Virus Inactivating Efficiency (LRV) ([2]; 0.1M, pH 4.0, on ice one hour): 1.5; Virus Inactivating Efficiency (LRV) ([2]; 0.1M, pH 4.3, on ice one hour): 1.3; Virus Inactivating Efficiency (LRV) ([3]; 0.1M, pH 3.5, on ice one hour (Example 1)): >5.7; Virus Inactivating Efficiency (LRV) ([3]; 0.1M, pH 3.5, on ice one hour (Example 1), listed as citrate buffer solution): > 5.7; Virus Inactivating Efficiency (LRV) ([3]; 0.1M, pH 4.0, on ice one hour (Example 1)): 1.5; Virus Inactivating Efficiency (LRV) ([3]; 0.1M, pH 4.3, on ice one hour (Example 1)): 0.1; Virus Inactivating Efficiency (LRV) ([3]; 0.1M, pH 4.3, on ice one hour (Example 1), listed as citrate buffer solution): the inactivation did not take place; Virus Inactivating Efficiency (LRV) ([1]; pH 3.8, 21.6° C.): 2.74; maximum LRV ([1]; within the pH range of 3.8 to 4.2, 21.6° C.): ≤ 2.95
Cl.N=C(N)NCCC[C@H](N)C(=O)O [arginine hydrochloride] | 3.87 |  | 4.2 | 0.5 | 1.1 | 2.2 | 3.1 | Virus Inactivating Efficiency (LRV) ([2]; 0.7M, 20 mM sodium acetate, pH 4.0, on ice one hour): 3.7; Virus Inactivating Efficiency (LRV) ([2]; 1M, pH 4.3, on ice one hour): 2.4; Virus Inactivating Efficiency (LRV) ([3]; Concentration 0.35 M, pH 4.0 (Example 4)): 4.5
